Data: US12590091B2, “1H-pyrrolo[3,2-C]pyridine and 1H-pyrrolo[2,3-C]pyridine derivatives as TLR9 inhibitors for the treatment of fibrosis” (BRISTOL-MYERS SQUIBB COMPANY, priority 2020, dated 2026)

Columns and labels:
human TLR9 = biological target: T1, human TLR9 (Homo sapiens, UniProt Q9NR96); experiment: TLR9 inhibition reporter assay (HEK-Blue cells, SEAP reporter); type: cell-based; details: HEK-Blue cells overexpressing human TLR9, stimulated with ODN2006 5 nM, 22 hour incubation
T1 construct: host or cells: HEK-Blue cells
T1 sequence (Q9NR96 26-1032): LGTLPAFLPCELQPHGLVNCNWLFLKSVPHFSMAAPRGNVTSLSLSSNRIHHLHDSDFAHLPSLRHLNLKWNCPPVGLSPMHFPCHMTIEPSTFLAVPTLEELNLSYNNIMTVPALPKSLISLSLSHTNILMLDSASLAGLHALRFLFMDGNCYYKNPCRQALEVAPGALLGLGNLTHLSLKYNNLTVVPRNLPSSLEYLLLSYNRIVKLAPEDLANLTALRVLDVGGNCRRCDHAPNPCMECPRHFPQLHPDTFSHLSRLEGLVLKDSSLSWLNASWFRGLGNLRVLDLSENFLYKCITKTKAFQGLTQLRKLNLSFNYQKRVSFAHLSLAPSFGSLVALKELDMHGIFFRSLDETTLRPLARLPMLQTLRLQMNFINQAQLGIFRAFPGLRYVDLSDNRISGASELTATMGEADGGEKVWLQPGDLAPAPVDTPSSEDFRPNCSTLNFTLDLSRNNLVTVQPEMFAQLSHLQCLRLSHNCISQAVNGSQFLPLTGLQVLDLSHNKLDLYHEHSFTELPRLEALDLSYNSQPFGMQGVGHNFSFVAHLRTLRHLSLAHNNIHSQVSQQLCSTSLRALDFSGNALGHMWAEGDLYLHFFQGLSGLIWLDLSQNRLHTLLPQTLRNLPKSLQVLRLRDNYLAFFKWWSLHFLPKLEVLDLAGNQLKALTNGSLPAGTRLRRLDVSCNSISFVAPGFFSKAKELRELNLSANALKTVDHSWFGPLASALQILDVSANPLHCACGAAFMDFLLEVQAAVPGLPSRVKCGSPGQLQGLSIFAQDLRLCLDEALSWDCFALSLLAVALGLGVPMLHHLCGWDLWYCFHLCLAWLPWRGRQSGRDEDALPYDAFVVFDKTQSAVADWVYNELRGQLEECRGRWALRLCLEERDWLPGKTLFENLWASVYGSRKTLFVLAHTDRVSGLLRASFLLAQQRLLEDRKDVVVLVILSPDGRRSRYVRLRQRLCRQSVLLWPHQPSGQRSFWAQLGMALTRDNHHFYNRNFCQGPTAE
Outline: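 Compound dose-response (0.05 nM–50 μM final) on agonist-stimulated human TLR9 HEK-Blue cells, 25,000/well, incubated 22 h at 37 °C, 5% CO2. Readout was secreted alkaline phosphatase under an IFN-β minimal promoter with NF-κB/AP-1 sites; inhibition expressed relative to DMSO and reference-inhibitor controls.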

human TLR7 = biological target: T2, human TLR7 (Homo sapiens, UniProt Q9NYK1); experiment: TLR7 inhibition reporter assay (HEK-Blue cells, SEAP reporter); type: cell-based; details: HEK-Blue cells overexpressing human TLR7, stimulated with gardiquimod 7.5 μM, 22 hour incubation
T2 construct: host or cells: HEK-Blue cells
T2 sequence (Q9NYK1 27-1049): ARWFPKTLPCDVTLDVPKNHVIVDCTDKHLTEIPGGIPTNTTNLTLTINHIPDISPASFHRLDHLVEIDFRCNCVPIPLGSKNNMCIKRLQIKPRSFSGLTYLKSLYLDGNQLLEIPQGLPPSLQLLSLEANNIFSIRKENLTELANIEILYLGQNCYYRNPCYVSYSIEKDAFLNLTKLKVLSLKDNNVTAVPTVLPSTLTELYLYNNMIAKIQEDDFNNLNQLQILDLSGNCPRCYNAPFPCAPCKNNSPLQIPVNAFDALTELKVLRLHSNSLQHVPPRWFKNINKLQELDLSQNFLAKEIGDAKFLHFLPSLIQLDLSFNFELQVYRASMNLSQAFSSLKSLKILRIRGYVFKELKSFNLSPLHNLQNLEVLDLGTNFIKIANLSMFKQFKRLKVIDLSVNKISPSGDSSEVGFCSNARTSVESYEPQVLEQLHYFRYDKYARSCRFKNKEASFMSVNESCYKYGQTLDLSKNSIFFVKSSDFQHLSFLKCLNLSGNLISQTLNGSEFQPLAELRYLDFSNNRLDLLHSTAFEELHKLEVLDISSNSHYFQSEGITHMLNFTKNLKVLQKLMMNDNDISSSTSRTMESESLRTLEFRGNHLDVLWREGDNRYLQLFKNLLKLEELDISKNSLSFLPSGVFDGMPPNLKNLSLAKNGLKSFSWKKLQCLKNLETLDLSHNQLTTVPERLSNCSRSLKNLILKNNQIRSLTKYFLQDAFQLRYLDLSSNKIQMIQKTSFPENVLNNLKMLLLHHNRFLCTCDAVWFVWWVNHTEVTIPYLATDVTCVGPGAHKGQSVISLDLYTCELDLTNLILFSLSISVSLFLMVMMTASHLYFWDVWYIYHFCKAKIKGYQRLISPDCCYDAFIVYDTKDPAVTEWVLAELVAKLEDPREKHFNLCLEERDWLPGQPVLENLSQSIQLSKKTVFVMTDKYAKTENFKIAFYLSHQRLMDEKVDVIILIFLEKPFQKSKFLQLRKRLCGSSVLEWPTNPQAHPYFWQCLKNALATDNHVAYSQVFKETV
Outline: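 Dose–response from 0.05 nM to 50 μM was run in HEK-Blue human TLR7, TLR8 and TLR9 reporter cells. After 30 min at room temperature with compound, ligand was added (TLR7 gardiquimod 7.5 μM; TLR8 R848 15.9 μM; TLR9 ODN2006 5 nM) and SEAP measured next day, at 22 h.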

Question: COCCN1CCN(c2ccc(-c3cc4c(cc(-c5ccc(S(C)(=O)=O)cc5)n4C)c(C)n3)cc2)CC1 [Example 38, 6-(4-(4-(2-methoxyethyl)piperazin-1-yl)phenyl)-1,4-dimethyl-2-(4-(methylsulfonyl)phenyl)-1H-pyrrolo[3,2-c]pyridine] was tested. Which IC50 (human TLR9) did it give?
Answer: 0.056 µM

Question: What about the IC50 (human TLR7) of the same compound?
Answer: 2.6 µM

Question: Which IC50 (human TLR9) does the source give for CC(C)N1CCN(Cc2ccc(-c3cc4c(cc(-c5ccc(S(C)(=O)=O)cc5)n4C)c(C(C)(C)O)n3)cc2)CC1 [Example 125, 2-(6-(4-((4-isopropylpiperazin-1-yl)methyl)phenyl)-1-methyl-2-(4-(methylsulfonyl)phenyl)-1H-pyrrolo[3,2-c]pyridin-4-yl)propan-2-ol] here?
Answer: 0.133 µM

Question: What about the IC50 (human TLR7) of the same compound?
Answer: 3.1 µM

Question: COc1ccc(-c2c(C)[nH]c3cnc(C4CCN(c5cc(C)nc(C)c5)CC4)cc23)cc1OC [Example 6, 3-(3,4-Dimethoxyphenyl)-5-(1-(2,6-dimethylpyridin-4-yl)piperidin-4-yl)-2-methyl-1H-pyrrolo[2,3-c]pyridine] was tested. Which IC50 (human TLR9) did it give?
Answer: 0.296 µM

Question: And the IC50 (human TLR7)?
Answer: 8 µM

Question: Which results are given for Cc1nc(-c2ccc(C3CCN(CCCO)CC3)cc2)cc2c1cc(-c1ccc(S(C)(=O)=O)cc1)n2C [Example 41, 3-(4-(4-(1,4-Dimethyl-2-(4-(methylsulfonyl)phenyl)-1H-pyrrolo[3,2-c]pyridin-6-yl)phenyl)piperidin-1-yl)propan-1-ol]?
Answer: IC50 (human TLR9): 0.236 µM; IC50 (human TLR7): 4.9 µM

Question: How did the IC50 (human TLR9) turn out when COCCN1CCN(c2ccc(-c3cc4c(cc(-c5ccc(S(=O)(=O)C6CC6)cc5)n4C)c(C)n3)cc2)CC1 [Example 48, 2-(4-(cyclopropylsulfonyl)phenyl)-6-(4-(4-(2-methoxyethyl)piperazin-1-yl)phenyl)-1,4-dimethyl-1H-pyrrolo[3,2-c]pyridine] was run?
Answer: 0.385 µM

Question: What about the IC50 (human TLR7) of the same compound?
Answer: 2.1 µM

Question: Which results are given for COc1ccc(-c2[nH]c3cnc(-c4ccc(N5CCN(C(C)C)CC5)cc4)cc3c2C)cc1OC [Example 1, 2-(3,4-Dimethoxyphenyl)-5-(4-(4-isopropylpiperazin-1-yl)phenyl)-3-methyl-1H-pyrrolo[2,3-c]pyridine]?
Answer: IC50 (human TLR9): 0.161 µM; IC50 (human TLR7): 1.7 µM

Question: How did the IC50 (human TLR9) turn out when Cc1nc(-c2ccc(CN3CCC(C)(O)CC3)cc2)cc2c1cc(-c1ccc(S(C)(=O)=O)cc1)n2C [Example 59, 1-(4-(1,4-dimethyl-2-(4-(methylsulfonyl)phenyl)-1H-pyrrolo[3,2-c]pyridin-6-yl)benzyl)-4-methylpiperidin-4-ol] was run?
Answer: 0.772 µM

Question: What about the IC50 (human TLR7) of the same compound?
Answer: 12.9 µM

Question: With Cc1nc(-c2ccc(C3(O)CCN(C(C)C)CC3)cc2)cc2c1cc(-c1ccc(S(C)(=O)=O)cc1)n2C [Example 88, 4-(4-(1,4-dimethyl-2-(4-(methylsulfonyl)phenyl)-1H-pyrrolo[3,2-c]pyridin-6-yl)phenyl)-1-isopropylpiperidin-4-ol] as the compound, how does the IC50 (human TLR9) read?
Answer: 0.114 µM

Question: What about the IC50 (human TLR7) of the same compound?
Answer: 6.5 µM

Question: What does the source list for COCCN1C2CCC1CN(c1cc(F)c(-c3cc4c(cc(-c5ccc(S(C)(=O)=O)cc5)n4C)c(C)n3)cc1F)C2 [Example 78, 6-(2,5-difluoro-4-(8-(2-methoxyethyl)-3,8-diazabicyclo[3.2.1]octan-3-yl)phenyl)-1,4-dimethyl-2-(4-(methylsulfonyl)phenyl)-1H-pyrrolo[3,2-c]pyridine]?
Answer: IC50 (human TLR9): 0.147 µM; IC50 (human TLR7): 2.7 µM

Question: Which IC50 (human TLR9) does the source give for COc1ccc(-c2cc3cnc(C4CCN(C5CCN(C(=O)c6ccccc6)CC5)CC4)cc3n2C)cc1OC [Example 26, (4-(2-(3,4-dimethoxyphenyl)-1-methyl-1H-pyrrolo[3,2-c]pyridin-6-yl)-[1,4′-bipiperidin]-1′-yl)(phenyl)methanone] here?
Answer: 0.009 µM

Question: What about the IC50 (human TLR7) of the same compound?
Answer: 7.3 µM

Question: CC(C)(O)CCN1CCN(Cc2ccc(-c3cc4c(cn3)cc(-c3ccc(S(C)(=O)=O)cc3)n4C3CC3)cc2)CC1 [Example 129, 4-(4-(4-(1-cyclopropyl-2-(4-(methylsulfonyl)phenyl)-1H-pyrrolo[3,2-c]pyridin-6-yl)benzyl)piperazin-1-yl)-2-methylbutan-2-ol] was tested. Which IC50 (human TLR9) did it give?
Answer: 0.118 µM

Question: What about the IC50 (human TLR7) of the same compound?
Answer: 3.6 µM

Question: Which IC50 (human TLR9) does the source give for Cc1nc(-c2ccc(CN3CCN(CCC(C)(C)O)CC3)cc2)cc2c1cc(-c1ccc(S(C)(=O)=O)cc1)n2C1CC1 [Example 116, 4-[4-[[4-[1-cyclopropyl-4-methyl-2-(4-methylsulfonylphenyl)pyrrolo[3,2-c]pyridin-6-yl]phenyl]methyl]piperazin-1-yl]-2-methyl-butan-2-ol] here?
Answer: 0.059 µM

Question: And the IC50 (human TLR7)?
Answer: 3.2 µM

Question: With Cc1nc(-c2ccc(C3(O)CCN(C(C)(C)C)CC3)c(F)c2)cc2c1cc(-c1ccc(S(C)(=O)=O)cc1)n2C [Example 104, 1-(tert-butyl)-4-(4-(1,4-dimethyl-2-(4-(methylsulfonyl)phenyl)-1H-pyrrolo[3,2-c]pyridin-6-yl)-2-fluorophenyl)piperidin-4-ol] as the compound, how does the IC50 (human TLR9) read?
Answer: 0.161 µM

Question: And the IC50 (human TLR7)?
Answer: 2.2 µM

Question: Which results are given for Cc1nc(-c2ccc(CN3CCN(CC(C)(C)O)CC3)cc2)cc2c1cc(-c1ccc(S(C)(=O)=O)cc1)n2C1CC1 [Example 123, 1-(4-(4-(1-cyclopropyl-4-methyl-2-(4-(methylsulfonyl)phenyl)-1H-pyrrolo[3,2-c]pyridin-6-yl)benzyl)piperazin-1-yl)-2-methylpropan-2-ol]?
Answer: IC50 (human TLR9): 0.085 µM; IC50 (human TLR7): 3.7 µM

Question: How did the IC50 (human TLR9) turn out when COc1ccc(-c2c(C)n(C)c3cnc(C4CCN(C5CCN(C(=O)c6ccccc6)CC5)CC4)cc23)cc1OC [Example 19, (4-(3-(3,4-dimethoxyphenyl)-1,2-dimethyl-1H-pyrrolo[2,3-c]pyridin-5-yl)-[1,4′-bipiperidin]-1′-yl)(phenyl)methanone] was run?
Answer: 0.13 µM

Question: What about the IC50 (human TLR7) of the same compound?
Answer: 5.2 µM

Question: Which results are given for Cc1nc(-c2ccc(C3(O)CC4CCC(C3)N4C(C)C)c(F)c2)cc2c1cc(-c1ccc(S(C)(=O)=O)cc1)n2C [Example 100, (1R,3r,5S)-3-(4-(1,4-dimethyl-2-(4-(methylsulfonyl)phenyl)-1H-pyrrolo[3,2-c]pyridin-6-yl)-2-fluorophenyl)-8-isopropyl-8-azabicyclo[3.2.1]octan-3-ol]?
Answer: IC50 (human TLR9): 0.184 µM; IC50 (human TLR7): 7.1 µM

Question: What does the source list for COc1ccc(-c2c(C)n(C)c3cnc(-c4ccc(N5CCN(C(C)C)CC5)cc4)cc23)cc1OC [Example 32, 3-(3,4-dimethoxyphenyl)-5-(4-(4-isopropylpiperazin-1-yl)phenyl)-1,2-dimethyl-1H-pyrrolo[2,3-c]pyridine]?
Answer: IC50 (human TLR9): 0.17 µM; IC50 (human TLR7): 1.4 µM

Question: Which IC50 (human TLR9) does the source give for COc1ccc(-c2cc3cnc(-c4ccc(N5CCN(C)CC5)cc4)cc3n2C)cc1OC [Example 27, 2-(3,4-dimethoxyphenyl)-1-methyl-6-(4-(4-methylpiperazin-1-yl)phenyl)-1H-pyrrolo[3,2-c]pyridine] here?
Answer: 0.045 µM

Question: What about the IC50 (human TLR7) of the same compound?
Answer: 2.6 µM
